{
  "source": "patent US20240016874A1",
  "about": "“COMPOSITIONS AND METHODS FOR PREVENTING AND TREATING CORONAVIRUSES” (priority 2020, published 2024)",
  "key": {"[1]": {"test_system": "SARS-CoV-2 MLV-PP infecting Expi-293F-ACE2 cells"}, "[2]": {"test_system": "SARS-CoV-2 MLV-PP infecting Expi-293F-ACE2 cells", "assay": "microbe, parasite or virus in culture", "conditions": "Severe acute respiratory syndrome coronavirus 2, read-out: IC50 of thymoquinone, SARS-CoV-2-PP infection"}},
  "note": "Read-outs that look alike come from different tables or passages of the source.",
  "data": [
    {"smiles": "C[C@@H]1CCO[C@H]2Cn3cc(C(=O)NCc4ccc(F)cc4F)c(=O)c(O)c3C(=O)N12", "note": "[dolutegravir, reference compound]", "values": [
      {"measurement": "inhibition of SARS-CoV-2 MLV-PP", "setting": "[1]", "value": "potent inhibitor"}
    ]},
    {"smiles": "COc1cnc(-n2cnc(C)n2)c2[nH]cc(C(=O)C(=O)N3CCN(C(=O)c4ccccc4)CC3)c12", "note": "[temsavir, reference compound]", "values": [
      {"measurement": "inhibition of SARS-CoV-2 MLV-PP infecting Expi-293F-ACE2 cells", "setting": "[1]", "value": "does not inhibit"}
    ]},
    {"smiles": "CC1=CC(=O)C(C(C)C)=CC1=O", "note": "[thymoquinone]", "values": [
      {"measurement": "block of the viral infection", "setting": "[1]", "value": "block the viral infection"},
      {"measurement": "cell toxicity at high concentrations", "setting": "[1]", "value": "can cause cell death"},
      {"measurement": "concentration that blocks SARS-CoV-2-MLV-PP infection without any cell toxicity", "setting": "[1]", "value": "1 to 10", "unit": "µM"},
      {"measurement": "increased effectiveness on adding black seed oil to thymoquinone", "setting": "[1]", "value": "about 16.0%"},
      {"measurement": "IC50", "setting": "[1]; read-out: IC50 of thymoquinone, SARS-CoV-2-PP infection", "value": 3.6, "unit": "µM"},
      {"measurement": "IC50", "setting": "[2]", "value": 4.3, "unit": "µM"}
    ]}
  ]
}
